Experiments:
[1] = Volume of distribution at steady state in Sprague-Dawley rat at 1 mg/kg, iv; assay type: ADME, organism-based; design: dose 1 mg/kg, route intravenous; conditions: in vivo, read-out: Vdss
[2] = molecular target: Mast/stem cell growth factor receptor Kit (Homo sapiens, UniProt P10721)
Description: Inhibition of SCF-induced phosphorylation of c-Kit in MO7e cells by TR-FRET assay

[3] = Inhibition of p38 by TR-FRET assay
[4] = Half life in Sprague-Dawley rat at 2 mg/kg, po; assay type: ADME, organism-based; design: dose 2 mg/kg, route oral; conditions: in vivo
[5] = Oral bioavailability in Sprague-Dawley rat at 2 mg/kg; assay type: ADME, organism-based; conditions: in vivo
[6] = molecular target: Tyrosine-protein kinase Lck (Homo sapiens, UniProt P06239)
Description: Inhibition of Lck by TR-FRET assay

[7] = molecular target: Proto-oncogene tyrosine-protein kinase Src (Homo sapiens, UniProt P12931)
Description: Inhibition of Src by TR-FRET assay

[8] = Cmax in Sprague-Dawley rat at 2 mg/kg, po; assay type: ADME, organism-based; design: dose 2 mg/kg, route oral; conditions: in vivo
[9] = AUC (0 to t) in Sprague-Dawley rat at 2 mg/kg, po; assay type: ADME, organism-based; design: dose 2 mg/kg, route oral; conditions: plasma
[10] = molecular target: Vascular endothelial growth factor receptor 2 (Homo sapiens, UniProt P35968)
Description: Inhibition of KDR by TR-FRET assay

[11] = Clearance in Sprague-Dawley rat at 1 mg/kg, iv; assay type: ADME, organism-based; design: dose 1 mg/kg, route intravenous; conditions: in vivo

Sequence of Mast/stem cell growth factor receptor Kit (P10721 whole entry): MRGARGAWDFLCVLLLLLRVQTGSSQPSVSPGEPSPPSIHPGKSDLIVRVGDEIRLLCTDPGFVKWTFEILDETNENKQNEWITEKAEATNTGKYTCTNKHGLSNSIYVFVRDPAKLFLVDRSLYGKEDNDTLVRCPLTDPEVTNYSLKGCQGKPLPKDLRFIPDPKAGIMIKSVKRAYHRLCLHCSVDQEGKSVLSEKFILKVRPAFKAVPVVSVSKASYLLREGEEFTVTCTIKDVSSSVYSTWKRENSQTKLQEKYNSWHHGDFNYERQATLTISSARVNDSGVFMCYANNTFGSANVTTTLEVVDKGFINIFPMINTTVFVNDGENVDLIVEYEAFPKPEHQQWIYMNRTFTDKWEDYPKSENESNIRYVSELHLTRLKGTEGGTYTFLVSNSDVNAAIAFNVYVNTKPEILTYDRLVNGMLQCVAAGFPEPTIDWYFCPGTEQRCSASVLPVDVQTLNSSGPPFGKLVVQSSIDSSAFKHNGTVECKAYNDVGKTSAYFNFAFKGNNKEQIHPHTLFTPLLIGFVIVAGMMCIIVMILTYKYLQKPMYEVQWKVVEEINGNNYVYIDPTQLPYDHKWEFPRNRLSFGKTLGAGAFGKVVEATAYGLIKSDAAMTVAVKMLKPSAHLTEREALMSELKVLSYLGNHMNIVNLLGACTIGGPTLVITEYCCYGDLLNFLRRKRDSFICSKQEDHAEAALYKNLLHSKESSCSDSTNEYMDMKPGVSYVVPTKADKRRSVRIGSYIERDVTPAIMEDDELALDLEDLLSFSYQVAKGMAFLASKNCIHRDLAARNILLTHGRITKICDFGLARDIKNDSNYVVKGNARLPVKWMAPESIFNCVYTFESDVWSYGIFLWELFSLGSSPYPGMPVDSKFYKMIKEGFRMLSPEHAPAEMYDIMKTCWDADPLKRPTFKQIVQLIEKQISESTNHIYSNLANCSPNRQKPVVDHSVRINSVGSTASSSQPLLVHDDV
Sequence of Tyrosine-protein kinase Lck (P06239 whole entry): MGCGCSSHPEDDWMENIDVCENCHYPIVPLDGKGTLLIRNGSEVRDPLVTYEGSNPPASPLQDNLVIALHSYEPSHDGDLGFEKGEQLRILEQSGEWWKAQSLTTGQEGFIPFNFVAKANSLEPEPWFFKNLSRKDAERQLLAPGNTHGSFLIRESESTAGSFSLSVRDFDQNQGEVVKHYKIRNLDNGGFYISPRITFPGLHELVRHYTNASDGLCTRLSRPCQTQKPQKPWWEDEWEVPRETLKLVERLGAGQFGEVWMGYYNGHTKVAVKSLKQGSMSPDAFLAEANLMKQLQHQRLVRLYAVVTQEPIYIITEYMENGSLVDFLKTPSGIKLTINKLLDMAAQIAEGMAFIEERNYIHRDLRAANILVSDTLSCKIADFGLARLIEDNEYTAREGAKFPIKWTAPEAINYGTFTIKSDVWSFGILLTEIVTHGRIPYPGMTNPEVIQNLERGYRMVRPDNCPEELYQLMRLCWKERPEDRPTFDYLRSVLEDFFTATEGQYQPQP
Sequence of Vascular endothelial growth factor receptor 2 (P35968 whole entry): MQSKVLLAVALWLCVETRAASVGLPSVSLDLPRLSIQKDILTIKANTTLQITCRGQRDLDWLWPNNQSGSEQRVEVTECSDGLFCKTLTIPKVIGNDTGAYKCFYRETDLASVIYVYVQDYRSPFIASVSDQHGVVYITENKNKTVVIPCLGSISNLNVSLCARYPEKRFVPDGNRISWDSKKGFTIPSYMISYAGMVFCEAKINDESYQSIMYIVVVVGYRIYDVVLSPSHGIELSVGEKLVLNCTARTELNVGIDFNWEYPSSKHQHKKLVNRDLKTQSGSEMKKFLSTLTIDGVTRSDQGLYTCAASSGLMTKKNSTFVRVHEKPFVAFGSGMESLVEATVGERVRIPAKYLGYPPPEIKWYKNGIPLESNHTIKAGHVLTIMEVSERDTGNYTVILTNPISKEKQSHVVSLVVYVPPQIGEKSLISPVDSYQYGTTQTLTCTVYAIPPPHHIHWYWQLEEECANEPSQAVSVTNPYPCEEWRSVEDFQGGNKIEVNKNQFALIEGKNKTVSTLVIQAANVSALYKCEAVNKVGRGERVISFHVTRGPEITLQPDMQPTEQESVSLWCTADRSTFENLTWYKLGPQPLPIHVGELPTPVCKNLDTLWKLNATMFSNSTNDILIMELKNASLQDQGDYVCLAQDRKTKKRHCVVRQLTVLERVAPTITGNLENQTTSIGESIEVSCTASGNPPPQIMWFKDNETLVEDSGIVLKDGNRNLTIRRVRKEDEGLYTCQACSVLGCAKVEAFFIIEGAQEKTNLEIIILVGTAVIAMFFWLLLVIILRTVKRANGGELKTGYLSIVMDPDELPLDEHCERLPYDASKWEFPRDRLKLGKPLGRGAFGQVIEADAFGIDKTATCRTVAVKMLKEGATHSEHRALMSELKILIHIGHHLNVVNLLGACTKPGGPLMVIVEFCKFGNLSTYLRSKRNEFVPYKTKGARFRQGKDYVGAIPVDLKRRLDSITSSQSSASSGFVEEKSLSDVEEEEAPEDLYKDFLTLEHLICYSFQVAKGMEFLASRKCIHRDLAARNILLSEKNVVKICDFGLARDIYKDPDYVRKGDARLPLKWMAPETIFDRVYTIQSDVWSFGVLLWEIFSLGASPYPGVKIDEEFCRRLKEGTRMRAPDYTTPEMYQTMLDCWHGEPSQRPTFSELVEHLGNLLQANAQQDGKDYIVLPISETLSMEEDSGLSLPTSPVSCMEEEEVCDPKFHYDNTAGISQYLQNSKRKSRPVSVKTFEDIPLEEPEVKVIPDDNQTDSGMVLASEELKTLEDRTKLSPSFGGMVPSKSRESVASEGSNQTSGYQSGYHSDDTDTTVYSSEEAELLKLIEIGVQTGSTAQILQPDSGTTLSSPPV
Sequence of Proto-oncogene tyrosine-protein kinase Src (P12931 2-536 limits assumed): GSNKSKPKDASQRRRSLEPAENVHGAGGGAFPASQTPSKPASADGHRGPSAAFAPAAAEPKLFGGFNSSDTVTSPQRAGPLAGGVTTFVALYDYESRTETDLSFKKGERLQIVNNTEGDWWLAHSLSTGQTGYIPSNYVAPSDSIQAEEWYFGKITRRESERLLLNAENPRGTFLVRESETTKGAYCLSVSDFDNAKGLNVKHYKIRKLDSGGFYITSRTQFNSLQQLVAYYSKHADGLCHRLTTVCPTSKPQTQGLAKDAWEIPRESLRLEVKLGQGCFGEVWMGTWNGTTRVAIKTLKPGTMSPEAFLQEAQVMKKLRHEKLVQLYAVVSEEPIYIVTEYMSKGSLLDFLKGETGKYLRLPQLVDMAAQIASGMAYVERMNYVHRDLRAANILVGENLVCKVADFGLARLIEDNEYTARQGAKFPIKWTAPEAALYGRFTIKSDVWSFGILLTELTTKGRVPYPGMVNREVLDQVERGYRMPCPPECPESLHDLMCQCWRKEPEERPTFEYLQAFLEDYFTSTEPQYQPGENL

Cc1ccc(-n2ccc(C)c(-c3ccc4nc(N)ncc4c3)c2=O)cc1F
Vd [1]: 2.39 L/kg
IC50 [2]: 0.012 µM
IC50 [3]: 40 µM
half-life [4]: 2.9 h
bioavailability [5]: 100%
IC50 [6]: 25 µM
IC50 [7]: 25 µM
Cmax [8]: 280 ng/mL
AUC(0-t) [9]: 1310 ng·h/mL
IC50 [10]: > 5 µM
clearance [11]: 32.5 mL/min/kg
